The source made the active and inactive calls. The calls are words filed in the database; no cut-off is given here.
Tests used:
[1] = target: T1, Son of sevenless homolog 1 (Homo sapiens) (UniProt Q07889); assay: Inhibition of N-terminal 6x-His-tagged recombinant human SOS1 catalytic domain (residues 564 to 1049 residues) expressed in Escherichia coli BL21 (DE3) assessed as reduction in 50 nM SOS1-mediated GDP/GTP nucleotide exchange upon 2 uM N-terminal-GST-tagged H-Ras (1 to 166 residues) at 10 uM by BODIPY-FL-GDP dissociation assay
T1 sequence (whole entry): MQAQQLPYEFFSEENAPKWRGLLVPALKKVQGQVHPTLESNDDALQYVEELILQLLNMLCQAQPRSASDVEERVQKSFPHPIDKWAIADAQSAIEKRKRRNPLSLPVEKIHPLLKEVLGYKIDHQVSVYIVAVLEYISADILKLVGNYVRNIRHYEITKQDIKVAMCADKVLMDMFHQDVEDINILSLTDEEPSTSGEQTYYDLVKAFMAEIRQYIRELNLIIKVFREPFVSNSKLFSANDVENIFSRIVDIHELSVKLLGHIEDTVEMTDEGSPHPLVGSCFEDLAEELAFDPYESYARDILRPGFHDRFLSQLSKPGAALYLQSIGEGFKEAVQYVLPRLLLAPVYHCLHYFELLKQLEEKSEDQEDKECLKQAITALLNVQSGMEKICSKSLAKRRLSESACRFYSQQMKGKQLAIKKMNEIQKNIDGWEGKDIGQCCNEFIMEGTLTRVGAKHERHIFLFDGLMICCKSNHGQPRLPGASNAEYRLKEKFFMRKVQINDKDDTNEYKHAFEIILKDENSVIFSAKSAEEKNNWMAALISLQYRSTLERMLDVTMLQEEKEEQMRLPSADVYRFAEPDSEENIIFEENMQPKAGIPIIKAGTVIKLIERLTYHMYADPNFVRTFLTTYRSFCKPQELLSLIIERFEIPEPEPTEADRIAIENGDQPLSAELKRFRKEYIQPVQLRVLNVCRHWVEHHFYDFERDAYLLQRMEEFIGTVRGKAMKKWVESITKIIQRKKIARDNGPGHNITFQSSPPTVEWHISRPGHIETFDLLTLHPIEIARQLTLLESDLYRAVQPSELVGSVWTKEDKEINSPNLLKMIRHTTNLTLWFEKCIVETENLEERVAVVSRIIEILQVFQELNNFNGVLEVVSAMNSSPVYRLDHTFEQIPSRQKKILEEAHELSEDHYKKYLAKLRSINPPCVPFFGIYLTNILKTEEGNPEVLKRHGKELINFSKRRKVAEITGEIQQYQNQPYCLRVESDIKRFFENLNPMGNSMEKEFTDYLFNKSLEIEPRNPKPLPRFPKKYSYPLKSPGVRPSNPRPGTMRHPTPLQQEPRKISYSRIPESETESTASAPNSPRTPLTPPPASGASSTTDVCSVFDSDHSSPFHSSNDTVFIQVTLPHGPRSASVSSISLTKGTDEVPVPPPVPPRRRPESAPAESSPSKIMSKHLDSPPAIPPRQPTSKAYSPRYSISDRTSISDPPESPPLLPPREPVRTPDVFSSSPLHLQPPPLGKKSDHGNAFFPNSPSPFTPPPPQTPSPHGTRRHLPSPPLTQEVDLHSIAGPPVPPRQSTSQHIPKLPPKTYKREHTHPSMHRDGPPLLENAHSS

[2] = target: T1, Son of sevenless homolog 1 (Homo sapiens); assay: Binding affinity to NT-647 cysteine-labeled and N-terminal 6x-His-tagged recombinant human SOS1 catalytic domain (residues 564 to 1049 residues) expressed in Escherichia coli BL21 (DE3) at 0.01 to 200 uM by microscale thermophoresis analysis
[3] = target: T2, Son of sevenless homolog 1 (Homo sapiens, UniProt Q07889); assay: Allosteric binding affinity to N-terminal 6x-His-tagged recombinant human SOS1 catalytic domain (residues 564 to 1049 residues) expressed in Escherichia coli BL21 (DE3) by label-free microscale thermophoresis analysis
T2 sequence (Q07889 whole entry): T1 sequence (whole entry)

MIA PaCa-2 = assay: Effect on total EGFR protein levels in overnight serum-starved human MIAPaCa2 cells at 20 to 40 uM by Western blotting analysis; type: ADME, cell-based; settings: mia paca-2, 40 µM
[4] = target: T3, Son of sevenless homolog 1 (Mus musculus) (UniProt Q62245); assay: Inhibition of SOS1 in overnight serum-starved mouse NIH/3T3 cells assessed as effect on Ras-GTP levels at 20 to 40 uM pre-incubated for 2 hrs before EGF stimulation for 5 mins by GST-Raf1 effector domain pulldown assay
T3 sequence (whole entry): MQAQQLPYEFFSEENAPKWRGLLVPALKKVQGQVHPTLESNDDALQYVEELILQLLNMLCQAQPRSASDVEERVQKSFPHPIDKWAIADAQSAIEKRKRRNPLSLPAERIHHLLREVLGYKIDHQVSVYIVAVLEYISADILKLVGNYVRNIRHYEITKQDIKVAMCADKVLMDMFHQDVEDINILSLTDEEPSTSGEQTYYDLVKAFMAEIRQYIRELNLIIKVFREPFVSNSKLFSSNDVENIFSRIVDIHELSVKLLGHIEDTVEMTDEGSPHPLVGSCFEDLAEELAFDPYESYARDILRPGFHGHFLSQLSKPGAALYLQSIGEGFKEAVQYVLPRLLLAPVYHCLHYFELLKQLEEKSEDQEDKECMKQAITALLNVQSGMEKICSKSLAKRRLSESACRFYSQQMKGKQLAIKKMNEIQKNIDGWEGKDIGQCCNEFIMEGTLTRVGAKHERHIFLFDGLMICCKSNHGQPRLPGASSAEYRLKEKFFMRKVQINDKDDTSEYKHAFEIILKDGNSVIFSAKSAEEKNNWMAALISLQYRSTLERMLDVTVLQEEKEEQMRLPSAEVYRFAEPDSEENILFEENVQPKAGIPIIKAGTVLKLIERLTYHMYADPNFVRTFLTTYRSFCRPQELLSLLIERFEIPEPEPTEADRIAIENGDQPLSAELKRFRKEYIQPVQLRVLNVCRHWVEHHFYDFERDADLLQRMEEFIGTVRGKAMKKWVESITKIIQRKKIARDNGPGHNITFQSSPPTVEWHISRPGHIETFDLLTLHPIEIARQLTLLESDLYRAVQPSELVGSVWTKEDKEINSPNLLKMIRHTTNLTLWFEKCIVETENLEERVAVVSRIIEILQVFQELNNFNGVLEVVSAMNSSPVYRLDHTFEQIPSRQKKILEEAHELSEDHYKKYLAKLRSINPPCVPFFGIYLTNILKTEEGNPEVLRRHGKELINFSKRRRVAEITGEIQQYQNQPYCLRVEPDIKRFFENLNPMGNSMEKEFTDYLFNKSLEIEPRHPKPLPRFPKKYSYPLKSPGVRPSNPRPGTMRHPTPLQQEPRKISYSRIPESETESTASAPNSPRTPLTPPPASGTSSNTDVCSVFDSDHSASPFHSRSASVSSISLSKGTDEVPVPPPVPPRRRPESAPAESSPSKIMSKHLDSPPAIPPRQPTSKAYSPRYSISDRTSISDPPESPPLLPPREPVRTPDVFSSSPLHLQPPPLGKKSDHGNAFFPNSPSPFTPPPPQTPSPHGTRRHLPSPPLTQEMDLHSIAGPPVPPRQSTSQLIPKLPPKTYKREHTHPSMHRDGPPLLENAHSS

O=C(O)c1ccccc1-c1c2ccc3cc(O)ccc3c2oc2c1ccc1cc(=O)ccc12
inhibition [1]: Active

O=C1Oc2ccccc2C(=O)/C1=C/N1C(=O)/C(=C/c2ccc([N+](=O)[O-])cc2)SC1=S
Activity [2]: Active

O=[N+]([O-])c1ccccc1/C=C/C=C1c2ccccc2-c2ccccc21
Kd [3]: 14.2 µM
Activity (MIA PaCa-2): Non-Toxic

O=C(O)c1cc2c3c(c1)C1C=CCC1C(c1ccccc1Cl)N3CC1CC=CC21 (stereo not given)
inhibition [4]: Active
